According to US20230117034A1, “PYRAZOLOTRIAZINES” (Bayer Aktiengesellschaft, priority 2019, published 2023):

Target: CDK12/CycK (Homo sapiens, UniProt Q9NYV4)
Test: CDK12/CycK high ATP kinase assay (TR-FRET, 2 mM ATP)
Format: biochemical
Conditions: 2 mM ATP (high ATP); median; read-out: CDK12/CyclinK, 2 mM ATP (high ATP), IC50-[mol/l] (median)
Outline: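 Read-out is TR-FRET (Eu-anti-rabbit IgG, anti-phospho-c-Myc Ser62 antibody, streptavidin-XL665) after EDTA stop. Reaction ran 60 min at 22 °C using 1 µM biotin-peptide and high ATP (2 mM) with roughly 0.75 nM recombinant CDK12/CycK, after 15 min compound pre-binding; normalised emission ratios yield IC50.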

Sequence of CDK12/CycK (Q9NYV4 with tags, fused parts or gaps): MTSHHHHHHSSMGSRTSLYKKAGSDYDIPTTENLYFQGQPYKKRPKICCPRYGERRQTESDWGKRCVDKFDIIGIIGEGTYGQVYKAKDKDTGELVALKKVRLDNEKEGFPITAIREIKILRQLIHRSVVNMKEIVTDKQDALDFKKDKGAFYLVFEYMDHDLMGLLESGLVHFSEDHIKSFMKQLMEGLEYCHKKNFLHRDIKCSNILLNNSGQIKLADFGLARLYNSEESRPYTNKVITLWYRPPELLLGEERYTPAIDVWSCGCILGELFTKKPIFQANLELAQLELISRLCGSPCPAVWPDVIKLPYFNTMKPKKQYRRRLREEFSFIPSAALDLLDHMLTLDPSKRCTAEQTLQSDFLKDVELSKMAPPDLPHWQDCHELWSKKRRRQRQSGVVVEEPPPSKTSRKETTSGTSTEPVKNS
Sequence of CDK12/CycK (O75909 1-300 partner limits assumed): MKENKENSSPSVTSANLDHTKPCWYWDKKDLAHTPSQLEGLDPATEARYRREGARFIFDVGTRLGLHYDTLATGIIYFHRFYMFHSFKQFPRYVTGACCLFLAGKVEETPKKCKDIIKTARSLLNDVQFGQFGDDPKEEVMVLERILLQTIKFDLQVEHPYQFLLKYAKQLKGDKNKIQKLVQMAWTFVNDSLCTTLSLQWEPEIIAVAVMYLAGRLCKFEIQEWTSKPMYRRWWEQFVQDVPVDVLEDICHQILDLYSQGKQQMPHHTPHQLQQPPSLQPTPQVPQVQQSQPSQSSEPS

Structure (SMILES)	IC50 [µM]
Fc1ccc(-c2nnc(CNc3nc(N4CCOCC4)nc4c(Br)cnn34)[nH]2)c(F)c1 [Example 41, 8-bromo-N-{[5-(2,4-difluorophenyl)-4H-1,2,4-triazol-3-yl]methyl}-2-(morpholin-4-yl)pyrazolo[1,5-a][1,3,5]triazin-4-amine]	> 5.71
CC(C)c1cnn2c(NCc3nnc(-c4ccccc4)[nH]3)nc(N3CCOCC3)nc12 [Example 33, 2-(morpholin-4-yl)-N-[(5-phenyl-4H-1,2,4-triazol-3-yl)methyl]-8-(propan-2-yl)pyrazolo[1,5-a][1,3,5]triazin-4-amine]	5.23
Clc1cc2nc(CNc3nc(N4CCOCC4)nc4c(-c5cscn5)cnn34)[nH]c2cc1Cl [Example 424, N-[(5,6-dichloro-1H-benzimidazol-2-yl)methyl]-2-(morpholin-4-yl)-8-(1,3-thiazol-4-yl)pyrazolo [1,5-a][1,3,5]triazin-4-amine]	> 20
Cn1cc(-c2cnn3c(NCc4nc5cc(Cl)c(Cl)cc5[nH]4)nc(N4CCOCC4)nc23)cn1 [Example 419, N-[(5,6-dichloro-1H-benzimidazol-2-yl)methyl]-8-(1-methyl-1H-pyrazol-4-yl)-2-(morpholin-4-yl)pyrazolo[1,5-a][1,3,5]triazin-4-amine]	> 20
CC(C)c1cnn2c(NCc3nnc(-c4ccccc4)[nH]3)nc(N3CCN(C)CC3)nc12 [Example 37, 2-(4-methylpiperazin-1-yl)-N-[(5-phenyl-4H-1,2,4-triazol-3-yl)methyl]-8-(propan-2-yl)pyrazolo[1,5-a][1,3,5]triazin-4-amine]	> 20
Fc1ccc2[nH]c(CNc3nc(N4CCOCC4)nc4c(-c5nccs5)cnn34)nc2c1F [Example 413, N-[(4,5-difluoro-1H-benzimidazol-2-yl)methyl]-2-(morpholin-4-yl)-8-(1,3-thiazol-2-yl)pyrazolo [1,5-a][1,3,5]triazin-4-amine]	> 20
Cc1cnn2c(NCc3nc4c(F)c(F)ccc4[nH]3)nc(N(C)CC(C)(C)O)nc12 [Example 395, 1-[(4-{[(4,5-difluoro-1H-benzimidazol-2-yl)methyl]amino}-8-methylpyrazolo[1,5-a][1,3,5]triazin-2-yl)(methyl)amino]-2-methylpropan-2-ol]	6.4
CCc1cnn2c(NCc3nc4c(F)c(F)ccc4[nH]3)nc(N3CCOCC3)nc12 [Example 432, N-[(4,5-difluoro-1H-benzimidazol-2-yl)methyl]-8-ethyl-2-(morpholin-4-yl)pyrazolo[1,5-a][1,3,5]triazin-4-amine]	2.3
Fc1ccc2[nH]c(CNc3nc(N4CCOCC4)nc4c(C(F)(F)F)cnn34)nc2c1F [Example 426, N-[(4,5-difluoro-1H-benzimidazol-2-yl)methyl]-2-(morpholin-4-yl)-8-(trifluoromethyl)pyrazolo [1,5-a][1,3,5]triazin-4-amine]	0.0239
CN1CCN(c2nc(NCc3nc4c(F)c(F)ccc4[nH]3)n3ncc(CC(F)(F)F)c3n2)CC1 [Example 437, N-[(4,5-difluoro-1H-benzimidazol-2-yl)methyl]-2-(4-methylpiperazin-1-yl)-8-(2,2,2-trifluoroethyl) pyrazolo[1,5-a][1,3,5]triazin-4-amine]	> 20
Clc1cc2nc(CNc3nc(N4CCOCC4)nc4c(-c5ccnnc5)cnn34)[nH]c2cc1Cl.O=C(O)C(F)(F)F [Example 440, trifluoroacetic acid N-[(5,6-dichloro-1H-benzimidazol-2-yl)methyl]-2-(morpholin-4-yl)-8-(pyridazin-4-yl)pyrazolo[1,5-a][1,3,5]triazin-4-amine]	> 20
Fc1ccc2[nH]c(CNc3nc(N4CCN5CCC4CC5)nc4c(C(F)(F)F)cnn34)nc2c1F [Example 407, 2-(1,4-diazabicyclo[3.2.2]nonan-4-yl)-N-[(4,5-difluoro-1H-benzimidazol-2-yl)methyl]-8-(trifluoromethyl)pyrazolo[1,5-a][1,3,5]triazin-4-amine]	0.706
